{"source": "paper PMC10568461", "about": "“A pilot study of cerebral metabolism and serotonin 5-HT2A receptor occupancy in rats treated with the psychedelic tryptamine DMT in conjunction with the MAO inhibitor harmine” (Frontiers in Pharmacology, 2023)", "key": {"[1]": {"system": "rats", "assay": "Behavioural observations in treated rats", "format": "in vivo, rat", "details": "not systematically assessed"}, "[2]": {"parameters": "method as in ref Guan et al., 2001; Li et al., 2017; Wang et al., 2019; Brito-da-Costa et al., 2020", "details": "rats, 0.5 to 3.3 mg/kg i.v. and 20–40 mg/kg p.o.; ref Guan et al., 2001; Li et al., 2017; Wang et al., 2019; Brito-da-Costa et al., 2020; cited from earlier work"}, "[3]": {"target": "T1, MAO-A (Rattus norvegicus, UniProt P21396)", "T1 sequence (P21396 1-526)": "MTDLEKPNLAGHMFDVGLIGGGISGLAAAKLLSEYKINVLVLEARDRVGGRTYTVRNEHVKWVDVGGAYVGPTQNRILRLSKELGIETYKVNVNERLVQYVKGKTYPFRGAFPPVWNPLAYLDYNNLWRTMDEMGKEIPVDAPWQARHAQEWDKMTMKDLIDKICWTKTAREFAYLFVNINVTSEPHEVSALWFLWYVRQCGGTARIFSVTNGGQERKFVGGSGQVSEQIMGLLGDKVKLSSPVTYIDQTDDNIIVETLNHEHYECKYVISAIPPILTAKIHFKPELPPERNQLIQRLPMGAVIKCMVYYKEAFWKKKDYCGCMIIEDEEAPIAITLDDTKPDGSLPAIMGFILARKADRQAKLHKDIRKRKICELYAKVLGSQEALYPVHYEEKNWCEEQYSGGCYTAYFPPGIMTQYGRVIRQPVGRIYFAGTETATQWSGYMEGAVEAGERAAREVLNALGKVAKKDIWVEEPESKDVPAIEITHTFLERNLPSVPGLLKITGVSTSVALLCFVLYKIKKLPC", "assay": "MAO-A inhibition in living brain inferred from cerebral 3-IAA", "format": "in vivo", "details": "Experiment 1, harmine 1 mg/kg with DMT; suggested by lower cerebral 3-IAA"}, "[4]": {"system": "brain glucose metabolism", "assay": "[^18F]FDG-PET of cerebral glucose metabolism (experiment 1)", "format": "in vivo, rat", "details": "for [^18F]FDG-PET SUV normalized to whole-brain uptake (SUVglob): 1 mg/kg s.c.; for [^18F]FDG-PET SUV normalized to whole-brain uptake (SUVglob) / [^18F]FDG-PET glucose normalized SUV (SUVgluc): mean (SD)", "procedure": "The dynamic PET recordings were histogrammed into six frames of 5 minutes each, and reconstructed with attenuation, decay, and scatter correction using the OSEM3D/SP-MAP algorithm (2 x OSEM iterations and 18 x MAP iterations) with a matrix size of 128 × 128 pixels, resulting in a final target resolution of 0.8 mm/pixel. Pre-processing of PET scans was performed using PMOD v4.2 (PMOD Technologies LLC, Zurich, Switzerland). The [^18F]FDG images were averaged across the six frames and then converted into standardized uptake values (SUV), whereupon the image was cropped to the head of the animal and automatically co-registered to a standard [^18F]FDG-PET template. We used Schiffer’s atlas ([Schiffer et al., 2006]) for parcellation of bilateral brain regions within the cortico-striato-thalamo-cortical (CSTC) circuit, i.e. bilateral nucleus accumbens (NAc), medial prefrontal cortex (mPFC), orbitofrontal cortex (OFC), hippocampus, striatum, thalamus, visual cortex, cerebellum as a comparator region, and whole brain. We selected these regions from the CSTC circuit based on a conceptual model holding that the thalamus acts as a filter/gatekeeper of sensory information, broadcasting to cortical regions that subserve conscious experience ([Wang et al., 2006]; [McAlonan et al., 2008]). Perturbation of this CSTC circuit is implicated in the action of psychedelic compounds ([Geyer and Vollenweider, 2008]; [Preller et al., 2019]). We scaled individual regional SUV results to the mean blood glucose levels measured during the recording session (SUVgluc) and to the global [^18F]FDG uptake (SUVglob)."}, "[5]": {"assay": "Brain concentrations of harmine, DMT and metabolites by UHPLC-MS after s.c. harmine and/or DMT", "details": "rat, subcutaneous", "experimental": "Groups of (n = 6) rats received either saline, harmine (1 mg/kg), DMT (1 mg/kg), or harmine + DMT (1 mg/kg each) as subcutaneous injections, as indicated in Figure 1.\nAfter 45 min, rats were sacrificed by decapitation, and the brains dissected into cerebellum and frontal cortex samples for radioactivity measurement and chemical analysis, thus 65 min after harmine + DMT."}, "[6]": {"target": "T1, MAO-A", "assay": "Apparent affinity at MAO binding sites in living brain", "format": "in vivo", "details": "extrapolated from the 150-fold in vitro/in vivo difference of [^18F]fluoroethyl-harmol; read-out: Predicted apparent affinity for MAO-A in living brain"}}, "note": "Values joined by “and” are separate entries in the source; they are usually repeats but may differ in a detail not shown here. Equal entries are not always repeated.", "data": [{"smiles": "COc1ccc2c(c1)[nH]c1c(C)nccc12", "note": "[harmine]", "values": [{"measurement": "Behaviour and anesthesia requirement of treated rats", "setting": "[1]", "result": "calmer and needed less isoflurane to sustain anesthesia"}, {"measurement": "Plasma half-life", "setting": "[2]", "result": 3.5, "unit": "h"}, {"measurement": "Inhibition of MAO-A in living brain", "setting": "[3]", "result": 50, "unit": "%"}, {"measurement": "Qualitative effect on brain [^18F]FDG uptake (SUVglob maps)", "setting": "[4]; 1 mg/kg, separately or in combination", "result": "no conspicuous effects"}, {"measurement": "Thalamus SUVglob versus vehicle group (Dunn's post hoc test)", "setting": "[4]; 1 mg/kg, Z = −2.66, p = 0.047", "result": "significantly different from the vehicle group"}, {"measurement": "[^18F]FDG-PET SUV normalized to whole-brain uptake (SUVglob)", "setting": "[4]; NAc", "result": "6.23 (0.18) SUV"}, {"measurement": "[^18F]FDG-PET glucose normalized SUV (SUVgluc)", "setting": "[4]; NAc, 1 mg/kg", "result": "6.4 (1.05) SUV"}, {"measurement": "[^18F]FDG-PET SUV normalized to whole-brain uptake (SUVglob)", "setting": "[4]; OFC", "result": "6.5 (0.44) SUV"}, {"measurement": "[^18F]FDG-PET glucose normalized SUV (SUVgluc)", "setting": "[4]; OFC, 1 mg/kg", "result": "6.71 (1.33) SUV"}, {"measurement": "[^18F]FDG-PET SUV normalized to whole-brain uptake (SUVglob)", "setting": "[4]; cerebellum", "result": "4.52 (0.15) SUV"}, {"measurement": "[^18F]FDG-PET glucose normalized SUV (SUVgluc)", "setting": "[4]; cerebellum, 1 mg/kg", "result": "4.62 (0.67) SUV"}, {"measurement": "[^18F]FDG-PET SUV normalized to whole-brain uptake (SUVglob)", "setting": "[4]; hippocampus", "result": "5.32 (0.23) SUV"}, {"measurement": "[^18F]FDG-PET glucose normalized SUV (SUVgluc)", "setting": "[4]; hippocampus, 1 mg/kg", "result": "5.44 (0.77) SUV"}, {"measurement": "[^18F]FDG-PET SUV normalized to whole-brain uptake (SUVglob)", "setting": "[4]; mPFC", "result": "7.09 (0.32) SUV"}, {"measurement": "[^18F]FDG-PET glucose normalized SUV (SUVgluc)", "setting": "[4]; mPFC, 1 mg/kg", "result": "7.28 (1.18) SUV"}, {"measurement": "[^18F]FDG-PET SUV normalized to whole-brain uptake (SUVglob)", "setting": "[4]; striatum", "result": "6.99 (0.12) SUV"}, {"measurement": "[^18F]FDG-PET glucose normalized SUV (SUVgluc)", "setting": "[4]; striatum, 1 mg/kg", "result": "7.19 (1.21) SUV"}, {"measurement": "[^18F]FDG-PET SUV normalized to whole-brain uptake (SUVglob)", "setting": "[4]; thalamus", "result": "6.54 (0.13) SUV"}, {"measurement": "[^18F]FDG-PET glucose normalized SUV (SUVgluc)", "setting": "[4]; thalamus, 1 mg/kg", "result": "6.73 (1.15) SUV"}, {"measurement": "[^18F]FDG-PET SUV normalized to whole-brain uptake (SUVglob)", "setting": "[4]; visual cortex", "result": "6.1 (0.24) SUV"}, {"measurement": "[^18F]FDG-PET glucose normalized SUV (SUVgluc)", "setting": "[4]; visual cortex, 1 mg/kg", "result": "6.29 (1.15) SUV"}, {"measurement": "[^18F]FDG-PET glucose normalized SUV (SUVgluc)", "setting": "[4]; whole brain, 1 mg/kg", "result": "5.69 (0.93) SUV"}, {"measurement": "concentration at 100 min", "setting": "[5]; brain, 1 mg/kg, Brain harmine concentration, at 100 min after treatment with 1 mg/kg", "result": "~1000", "unit": "nM"}, {"measurement": "concentration at 95 min", "setting": "[5]; brain, 1 mg/kg, Mean concentration in brain tissue, Experiment 1, after harmine alone (1 mg/kg)", "result": "116 ng/g and 550 nM"}, {"measurement": "concentration at 70 min", "setting": "[5]; brain, 3 mg/kg, Brain harmine concentration, at 70 min after the higher dose (3 mg/kg)", "result": "~2000", "unit": "nM"}, {"measurement": "concentration at 65 min", "setting": "[5]; brain, Mean brain concentration, Experiment 2, harmine + DMT (3 mg/kg each)", "result": "424 ng/g and 2 µM"}, {"measurement": "concentration at 95 min", "setting": "[5]; brain, Mean concentration in brain tissue, Experiment 1, after harmine + DMT (1 mg/kg each)", "result": "257 ng/g and 1.21 µM"}, {"measurement": "concentration at 95 min", "setting": "[5]; cerebellum, 1 mg/kg, Brain concentration, Experiment 1, cerebellum, group DMT (1 mg/kg s.c.), 95 min, mean (SD)", "result": 13.6, "unit": "ng/g"}, {"measurement": "concentration at 95 min", "setting": "[5]; cerebellum, Brain concentration, Experiment 1, cerebellum, group Har (harmine 1 mg/kg s.c.), 95 min after drug, mean (SD)", "result": 104, "unit": "ng/g"}, {"measurement": "concentration at 95 min", "setting": "[5]; cerebellum, Brain concentration, Experiment 1, cerebellum, group Har + DMT (1 mg/kg each s.c.), 95 min, mean (SD)", "result": 189, "unit": "ng/g"}, {"measurement": "concentration at 65 min", "setting": "[5]; cerebellum, Brain concentration, Experiment 2, cerebellum, group Har + DMT (3 mg/kg each s.c.), 65 min, mean (SD)", "result": 412, "unit": "ng/g"}, {"measurement": "concentration at 95 min", "setting": "[5]; frontal cortex, 1 mg/kg, Brain concentration, Experiment 1, frontal cortex, group DMT (1 mg/kg s.c.), 95 min, mean (SD)", "result": 20.1, "unit": "ng/g"}, {"measurement": "concentration at 95 min", "setting": "[5]; frontal cortex, Brain concentration, Experiment 1, frontal cortex, group Har (harmine 1 mg/kg s.c.), 95 min, mean (SD)", "result": 128, "unit": "ng/g"}, {"measurement": "concentration at 95 min", "setting": "[5]; frontal cortex, Brain concentration, Experiment 1, frontal cortex, group Har + DMT (1 mg/kg each s.c.), 95 min, mean (SD)", "result": 326, "unit": "ng/g"}, {"measurement": "concentration at 65 min", "setting": "[5]; frontal cortex, Brain concentration, Experiment 2, frontal cortex, group Har + DMT (3 mg/kg each s.c.), 65 min, mean (SD)", "result": 436, "unit": "ng/g"}, {"measurement": "Kd", "setting": "[6]", "result": "~300", "unit": "nM"}]}]}
